PubChem BioAssay AID248 (DTP/NCI, 2004)
“And” between values parts separate entries of the source, which are not always exact repeats. Equal values may be shown once. Toxic doses and inconclusive results are not listed. Rule as the data show it: active = T/C of 150% or more; inactive = T/C below 125%.

System: L1210 leukemia ip in BDF1 mice, survival T/C
Assay: NCI In Vivo Anticancer Drug Screen. Data for tumor model L1210 Leukemia (intraperitoneal) in B6D2F1 (BDF1) mice
Details: endpoint: mean survival time, higher = longer survival
How it was run: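 Each compound was tested against a transplantable tumor grown in mice. The endpoint was survival, with treated animals benchmarked against vehicle controls as a simple ratio.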

[1] = dose: 100.0 mg/kg/injection, schedule: Q01DX009 (ip), vehicle: saline with Tween-80
[2] = dose: 200.0 mg/kg/injection, schedule: Q01DX009 (ip), vehicle: saline with Tween-80
[3] = dose: 25.0 mg/kg/injection, schedule: Q01DX009 (ip), vehicle: saline with Tween-80
[4] = dose: 50.0 mg/kg/injection, schedule: Q01DX009 (ip), vehicle: saline with Tween-80
[5] = dose: 50.0 mg/kg/injection, schedule: Q04DX002 (ip), vehicle: saline with Tween-80
[6] = dose: 100.0 mg/kg/injection, schedule: Q04DX002 (ip), vehicle: saline with Tween-80
[7] = dose: 200.0 mg/kg/injection, schedule: Q04DX002 (ip), vehicle: saline with Tween-80
[8] = dose: 100.0 mg/kg/injection, schedule: Q04DX003 (ip), vehicle: Klucel (hydroxypropylcellulose) (HPC)
[9] = dose: 200.0 mg/kg/injection, schedule: Q04DX003 (ip), vehicle: Klucel (hydroxypropylcellulose) (HPC)
[10] = dose: 400.0 mg/kg/injection, schedule: Q04DX003 (ip), vehicle: Klucel (hydroxypropylcellulose) (HPC)
[11] = dose: 100.0 mg/kg/injection, schedule: Q01DX009 (ip), vehicle: Klucel (hydroxypropylcellulose) (HPC)
[12] = dose: 200.0 mg/kg/injection, schedule: Q01DX009 (ip), vehicle: Klucel (hydroxypropylcellulose) (HPC)
[13] = dose: 400.0 mg/kg/injection, schedule: Q01DX009 (ip), vehicle: Klucel (hydroxypropylcellulose) (HPC)
[14] = dose: 100.0 mg/kg/injection, schedule: Q01DX001 (ip), vehicle: saline
[15] = dose: 200.0 mg/kg/injection, schedule: Q01DX001 (ip), vehicle: saline
[16] = dose: 400.0 mg/kg/injection, schedule: Q01DX001 (ip), vehicle: saline

Measured: T/C

Cc1cccc(NC(=O)c2ccc(Cl)cc2Cl)n1 (tested in a mixture with another compound)
inactive: dose: 100.0 mg/kg/injection, schedule: Q04DX002 (ip), vehicle: Klucel (hydroxypropylcellulose) (HPC) 103 % of control | dose: 200.0 mg/kg/injection, schedule: Q04DX002 (ip), vehicle: Klucel (hydroxypropylcellulose) (HPC) 103 % of control | dose: 400.0 mg/kg/injection, schedule: Q04DX002 (ip), vehicle: Klucel (hydroxypropylcellulose) (HPC) 92 % of control

O=C(O)Cc1cc2c(cc1I)OCO2
inactive: [1] 98 % of control | [2] 104 % of control | dose: 400.0 mg/kg/injection, schedule: Q01DX009 (ip), vehicle: saline with Tween-80 109 % of control

CCOC(=O)/C=C\C(=O)O.[Mn]
inactive: [3] 97 % of control | dose: 25.0 mg/kg/injection, schedule: Q04DX003 (ip), vehicle: saline 108 % of control | [4] 108 % of control | dose: 50.0 mg/kg/injection, schedule: Q04DX003 (ip), vehicle: saline 106 % of control | [1] 110 % of control | dose: 100.0 mg/kg/injection, schedule: Q04DX003 (ip), vehicle: saline 103 % of control and 108 % of control | dose: 200.0 mg/kg/injection, schedule: Q04DX003 (ip), vehicle: saline 120 % of control

C=CCN(CC=C)C(=S)Nc1cccc(Cl)c1
inactive: dose: 100.0 mg/kg/injection, schedule: Q01DX001 (ip), vehicle: other 103 % of control | dose: 200.0 mg/kg/injection, schedule: Q01DX001 (ip), vehicle: other 100 % of control | dose: 400.0 mg/kg/injection, schedule: Q01DX001 (ip), vehicle: other 100 % of control

CC(=O)c1ccc(C)c([N+](=O)[O-])c1
inactive: dose: 50.0 mg/kg/injection, schedule: Q01DX001 (ip), vehicle: carboxymethylcellulose (CMC) 98 % of control | dose: 100.0 mg/kg/injection, schedule: Q01DX001 (ip), vehicle: carboxymethylcellulose (CMC) 91 % of control | dose: 200.0 mg/kg/injection, schedule: Q01DX001 (ip), vehicle: carboxymethylcellulose (CMC) 107 % of control | dose: 400.0 mg/kg/injection, schedule: Q01DX001 (ip), vehicle: carboxymethylcellulose (CMC) 91 % of control

CCCCNC(=O)C1C=C2c3cccc4c3C(CN4)CC2N(C)C1 (stereo unspecified)
inactive: [3] 87 % of control | [4] 89 % of control

C=CCC1(CCCC)C(=O)NC(=O)NC1=O
inactive: dose: 75.0 mg/kg/injection, schedule: Q01DX001 (ip), vehicle: saline 89 % of control | dose: 150.0 mg/kg/injection, schedule: Q01DX001 (ip), vehicle: saline 105 % of control

CCCCN1CCNCC1
inactive: dose: 50.0 mg/kg/injection, schedule: Q01DX009 (ip), vehicle: saline 95 % of control | dose: 100.0 mg/kg/injection, schedule: Q01DX009 (ip), vehicle: saline 97 % of control | dose: 200.0 mg/kg/injection, schedule: Q01DX009 (ip), vehicle: saline 106 % of control

S=C=NCCCCCCCCCCCCN=C=S
inactive: dose: 6.25 mg/kg/injection, schedule: Q01DX009 (ip), vehicle: saline with Tween-80 101 % of control | dose: 12.5 mg/kg/injection, schedule: Q01DX009 (ip), vehicle: saline with Tween-80 93 % of control | dose: 25.0 mg/kg/injection, schedule: Q04DX002 (ip), vehicle: saline with Tween-80 114 % of control | [5] 111 % of control | [6] 101 % of control

CC(C)CCCC(C)CCCl (stereo unspecified)
inactive: [6] 93 % of control | [7] 86 % of control | dose: 400.0 mg/kg/injection, schedule: Q04DX002 (ip), vehicle: saline with Tween-80 107 % of control

CCc1c(C)[nH]c2c1C(=O)CCC2
inactive: dose: 10.0 mg/kg/injection, schedule: Q01DX001 (ip), vehicle: saline 98 % of control | dose: 20.0 mg/kg/injection, schedule: Q01DX001 (ip), vehicle: saline 100 % of control | dose: 40.0 mg/kg/injection, schedule: Q01DX001 (ip), vehicle: saline 105 % of control

O=C(Nc1ccc(F)c(Cl)c1)Oc1cc(=O)oc2ccccc12
inactive: [8] 92 % of control | [9] 101 % of control | [10] 105 % of control

N#Cc1cccc(OCCCCOc2ccccc2)c1
inactive: [11] 89 % of control | [12] 109 % of control | [13] 95 % of control

O=C(CCc1ccc(O)cc1)c1c(O)cc(O)cc1O
inactive: [14] 96 % of control | [15] 94 % of control | [16] 92 % of control

COC(CN(C)C(=O)NC1CCCCC1)OC
inactive: [1] 102 % of control | [2] 100 % of control

OCC(O)C(O)C(O)/C=N\Nc1ccc(Br)cc1 (stereo unspecified)
inactive: [5] 93 % of control | [6] 95 % of control | [7] 87 % of control

c1ccc(C2(c3ccccc3)c3ccc([nH]3)C(c3ccccc3)(c3ccccc3)c3ccc([nH]3)C(c3ccccc3)(c3ccccc3)c3ccc([nH]3)C(c3ccccc3)(c3ccccc3)c3ccc2[nH]3)cc1
inactive: [14] 97 % of control | [15] 100 % of control | [16] 100 % of control

O=[N+]([O-])c1cccc(N=Nc2ccc(O)cc2)c1
inactive: [11] 102 % of control | dose: 130.0 mg/kg/injection, schedule: Q01DX009 (ip), vehicle: Klucel (hydroxypropylcellulose) (HPC) 106 % of control

Cc1cc2nc(CO)[nH]c2cc1C
inactive: [11] 94 % of control | [8] 95 % of control | [12] 96 % of control | [9] 93 % of control | [13] 98 % of control | [10] 92 % of control

CC(N)CSC(=O)c1ccccc1 (stereo unspecified)
inactive: dose: 100.0 mg/kg/injection, schedule: Q04DX003 (ip), vehicle: saline with Tween-80 100 % of control | dose: 200.0 mg/kg/injection, schedule: Q04DX003 (ip), vehicle: saline with Tween-80 100 % of control | dose: 400.0 mg/kg/injection, schedule: Q04DX003 (ip), vehicle: saline with Tween-80 94 % of control
